Patent US20110027185A1, “Methods of Screening for Anti-Angiogenic Compounds” (priority 2007, published 2011)

Assays:
[1] = tested on: protein synthesis in the cultured rat cells; details: cited from earlier work
[2] = tested on: WiDr cell lines of human colon cancer; details: cited from earlier work
[3] = tested on: PC-3 cell lines of human prostate cancer; details: cited from earlier work
FBP21 = target: T1, FBP21 (Homo sapiens, UniProt O75554); test: Phage display biopanning with biotinylated bait, Human Colon Tumour Library; format: binding; details: SDS and E. coli elution
T1 construct: encode 99 amino acids in frame with the phage coat protein of which a segment of 83 residues share 100% homology with FBP21; purchased Novagen; host or cells: T7 phage amplified in E. coli BLT5403
T1 sequence (O75554 with tags, fused parts or gaps): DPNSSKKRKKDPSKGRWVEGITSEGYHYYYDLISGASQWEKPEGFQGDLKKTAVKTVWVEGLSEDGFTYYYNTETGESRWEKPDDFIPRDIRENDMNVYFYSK
Procedure: Streptavidin wells were incubated with 1 μM biotinylated probe at 4° C. overnight to prepare the wells for biopanning. After incubation, unbound biotinylated probe was removed from the well by washing with phosphate buffered saline (PBS). Wells were then blocked with blocking solution (3% skimmed milk in PBS) for at least one hour at room temperature. Blocked wells were then briefly washed with PBS and were ready for biopanning use. […] In the first round of biopanning, 0.15 mL of amplified phage library was added to an empty streptavidin coated well and incubated at room temperature for at least 1 hour. This step was included to deselect any phage displaying streptavidin binding proteins. After incubation, the phage were removed from the well and mixed with 50 μL 4× blocking solution (12% skimmed milk in PBS) and incubated at room temperature for at least one hour. 0.125 mL of blocked phage library was added to each pre-prepared biotinylated well and incubated at room temperature for at least one hour. […] After incubation, unbound phage were removed from the well with wash solution. The wash solution was varied depending on the round of biopanning. For first round of biopanning PBS1 was used. For subsequent rounds the stringency of the wash was increased by using sequentially PBS2, PBS3 and PBS4 (see Table I). […]

B16-BL6 melanoma cells = details: same dosage (1.8 mg/kg); cited from earlier work
HUVEC [4] = test: HUVEC growth inhibition assay (NCI); format: cell-based, human; details: Homo sapiens, 72 h, crystal violet
Procedure: Angiogenesis assays were provided by the NCI, details of the assay protocols are given below. In each assays TNP-470 and paclitaxel (Taxol®) were used as reference compounds. HUVEC (1.5×10^3) were plated in a 96-well plate in 100 μL of EBM-2 (Clonetic #CC3162). […] On day 0, one plate was stained with 0.5% crystal violet in 20% methanol for 10 minutes, rinsed with water, and air-dried. The remaining plates were incubated for 72 h at 37° C. After 72 h, plates were stained with 0.5% crystal violet in 20% methanol, rinsed with water and air-dried. The stain was eluted with 1:1 solution of ethanol:0.1 M sodium citrate (including day 0 plate), and absorbance was measured at 540 nm with an ELISA reader (Dynatech Laboratories). Day 0 absorbance was subtracted from the 72 h plates and data was plotted as percentage of control proliferation (vehicle treated cells).

[5] = tested on: human umbilical vein endothelial cells (HUVEC); details: cited from earlier work
[6] = tested on: Lewis lung adenocarcinoma; details: Lewis lung adenocarcinoma model; cited from earlier work
capillary tube formation = details: rat aorta matrix culture model, cited from earlier work
[7] = tested on: VEGFxxx and VEGFxxxb expression in RPE cells; test: VEGF isoform ELISA of media of treated RPE cells; format: cell-based; details: 0.5 μM or 5 μM, 72 hours
Procedure: Media was sampled after 72 hours treatment, and assessed for total VEGF and VEGFxxxb expression (see Bates et al., 2002, Woolard et al., 2004 and Varey et al., 2008 for methods).

[8] = tested on: WiDr cells induced angiogenesis; details: 1.8 mg/kg intraperitoneal injection, mouse dorsal air sac model; cited from earlier work
HUVEC [9] = test: HUVEC cord formation assay on matrigel (NCI); format: cell-based, human; details: Homo sapiens, 24 h
Procedure: Angiogenesis assays were provided by the NCI, details of the assay protocols are given below. In each assays TNP-470 and paclitaxel (Taxol®) were used as reference compounds. Matrigel (60 μL of 10 mg/mL; Collaborative Lab #35423) was placed in each well of an ice-cold 96-well plate. The plate was allowed to sit at room temperature for 15 minutes then it was incubated at 37° C. for 30 minutes to permit the matrigel to polymerize. In the mean time, HUVEC were prepared in EGM-2 (Clonetic #CC3162) at a concentration of 2×10^5 cells/mL. […] The cells (500 μL) and the drug at 2 times concentration (500 μL) were mixed and 200 μL of this suspension was placed in duplicate on the polymerized matrigel. After 24 h incubation, triplicate pictures were taken for each concentration using a Bioquant Image Analysis system. Drug effect (IC50) is assessed compared to untreated controls by measuring the length of cords formed and number of junctions.

HUVEC [10] = test: HUVEC cell migration (chemotaxis) assay, Boyden chamber (NCI); format: cell-based, human; details: Homo sapiens, 5 h
Procedure: Angiogenesis assays were provided by the NCI, details of the assay protocols are given below. In each assays TNP-470 and paclitaxel (Taxol®) were used as reference compounds. Migration was assessed using the 48-well Boyden chamber and 8 μm pore size collagen-coated (10 μg/mL rat tail collagen; Collaborative Laboratories) polycarbonate filters (Osmonics, Inc.). The bottom chamber wells received 27-29 μL of DMEM medium alone (baseline) or medium containing chemo-attractant (bFGF, VEGF or Swiss 3T3 cell conditioned medium). The top chambers received 45 μL of HUVEC cell suspension (1×10^6 cells/mL) prepared in DMEM+1% BSA with or without test compound. After 5 h incubation at 37° C., the membrane was rinsed in PBS, fixed and stained in Diff-Quick solutions. The filter was placed on a glass slide with the migrated cells facing down and cells on top were removed using a Kimwipe. The testing was performed in 4-6 replicates and five fields were counted from each well. Negative, unstimulated, control values were subtracted from stimulated control and drug treated values and data was plotted as mean migrated cell±S.D. The IC50 was calculated from the plotted data.

## C[C@@H]1C[C@H](C)C[C@H](C)[C@@H](O)CC(=O)O[C@H]([C@@H]2CCC[C@H]2C(=O)O)C/C=C/C=C(/C#N)[C@H](O)[C@@H](C)C1 [Borrelidin]
[1]
  anti-angiogenesis IC50 lower than IC50 for inhibition of protein synthesis: 50 fold
[1]; cultured rat cells
  inhibition of protein synthesis, IC50: 20 ng/mL
[2]
  effect against WiDr cell lines: effective against WiDr cell lines
[3]
  effect against PC-3 cell lines: also against PC-3 cell lines
FBP21
  identification of FBP21 fragment by biopanning (binding): consistently identified an FBP21 fragment
B16-BL6 melanoma cells
  formation of spontaneous lung metastases of B16-BL6 melanoma cells: effective for the inhibition of the formation of spontaneous lung metastases
HUVEC [4]
  IC50: 3.25 nM
[5]; cell growth assay
  anti-proliferative activity towards HUVEC, IC50: 6 ng/mL
[5]; measured in the same medium
  HUVEC anti-proliferative IC50 weaker than anti-angiogenesis activity: 15 fold
[6]
  propagation of metastatic nodules after removal of the primary tumour: weakly inhibited
Capillary tube formation
  inhibition of capillary tube formation, IC50: 0.4 ng/mL
Capillary tube formation; read-out: inhibition of capillary tube formation, IC50
  IC50: 0.8 nM
[7]
  VEGFxxx expression (ELISA): significant downregulation
  VEGFxxxb expression (ELISA): significant upregulation
[8]
  increment of vascular volume induced by WiDr cells: significantly reduce the increment of vascular volume
HUVEC [9]
  IC50: 46.5 nM
HUVEC [10]
  IC50: 63 nM
